Source: ChEMBL document CHEMBL3272271, “Folate antagonists. 13. 2,4-Diamino-6-](alpha,alpha,alpha-trifluoro-m-tolyl)thio]quinazoline and related 2,4-diamino-6-[(phenyl- and naphthyl)thio]quinazolines, a unique class of antimetabolites with extraordinary antimalarial and antibacterial effects” (J Med Chem, 1978)
≈ marks a conversion by molar mass, not a printed value. Calls of active or inactive are those of the source. The rule behind the calls is not given here.

Legend:
[1] = system: Enterococcus faecalis; experiment: Antibacterial activity against Streptococcus faecalis MGH-2 by gradient plate test; type: functional
[2] = system: Staphylococcus aureus; experiment: Antibacterial activity against Staphylococcus aureus UC-96 by gradient plate test; type: functional
[3] = system: Staphylococcus aureus; experiment: Antibacterial activity against drug-resistant Staphylococcus aureus S18713 by gradient plate test; type: functional
[4] = system: Pseudomonas aeruginosa; experiment: Antibacterial activity against Pseudomonas aeruginosa 28 by gradient plate test; type: functional
[5] = system: Escherichia coli; experiment: Antibacterial activity against Escherichia coli Vogel by gradient plate test; type: functional
[6] = system: Shigella sonnei; experiment: Antibacterial activity against Shigella sonnei C-10 by gradient plate test; type: functional
[7] = system: Mycobacterium tuberculosis; experiment: Antibacterial activity against Mycobacterium tuberculosis H37Ra by gradient plate test; type: functional
[8] = system: Plasmodium berghei; experiment: Antimalarial activity against Plasmodium berghei infected in mouse assessed as increase in mean survival days of host at 80 mg/kg, sc administered 72 hrs after infection relative to control; type: functional; details: route subcutaneous
[9] = system: Plasmodium berghei; experiment: Antimalarial activity against Plasmodium berghei infected in mouse assessed as increase in mean survival days of host at 40 mg/kg, sc administered 72 hrs after infection relative to control; type: functional; details: route subcutaneous
[10] = system: Plasmodium berghei; experiment: Antimalarial activity against Plasmodium berghei infected in mouse assessed as increase in mean survival days of host at 20 mg/kg, sc administered 72 hrs after infection relative to control; type: functional; details: route subcutaneous
[11] = system: Plasmodium berghei; experiment: Antimalarial activity against Plasmodium berghei infected in mouse assessed as increase in mean survival days of host at 10 mg/kg, sc administered 72 hrs after infection relative to control; type: functional; details: route subcutaneous
[12] = system: Plasmodium berghei; experiment: Antimalarial activity against Plasmodium berghei infected in mouse assessed as disease cure from parasite infection at 640 mg/kg, sc administered 72 hrs after infection; type: functional, organism-based; parameters: dose 640 mg/kg
[13] = system: Plasmodium berghei; experiment: Antimalarial activity against Plasmodium berghei infected in mouse assessed as disease cure from parasite infection at 320 mg/kg, sc administered 72 hrs after infection; type: functional, organism-based; parameters: dose 320 mg/kg
[14] = system: Plasmodium berghei; experiment: Antimalarial activity against Plasmodium berghei infected in mouse assessed as disease cure from parasite infection at 160 mg/kg, sc administered 72 hrs after infection; type: functional, organism-based; parameters: dose 160 mg/kg
[15] = system: Plasmodium berghei; experiment: Antimalarial activity against Plasmodium berghei infected in mouse assessed as disease cure from parasite infection at 80 mg/kg, sc administered 72 hrs after infection; type: functional, organism-based; parameters: dose 80 mg/kg
[16] = system: Plasmodium berghei; experiment: Antimalarial activity against Plasmodium berghei infected in mouse assessed as increase in mean survival days of host at 160 mg/kg, sc administered 72 hrs after infection relative to control; type: functional; details: route subcutaneous
[17] = system: Plasmodium berghei; experiment: Antimalarial activity against Plasmodium berghei infected in mouse assessed as increase in mean survival days of host at 320 mg/kg, sc administered 72 hrs after infection relative to control; type: functional; details: route subcutaneous
[18] = system: Plasmodium berghei; experiment: Antimalarial activity against Plasmodium berghei infected in mouse assessed as increase in mean survival days of host at 5 mg/kg, sc administered 72 hrs after infection relative to control; type: functional; details: route subcutaneous
[19] = system: Plasmodium gallinaceum; experiment: Antimalarial activity against trophozoite-induced Plasmodium gallinaceum infected in white leghorn chicken assessed as increase in mean survival days of host at 320 mg/kg, sc administered 72 hrs after infection relative to control; type: functional; details: route subcutaneous
[20] = system: Plasmodium gallinaceum; experiment: Antimalarial activity against trophozoite-induced Plasmodium gallinaceum infected in white leghorn chicken assessed as increase in mean survival days of host at 160 mg/kg, sc administered 72 hrs after infection relative to control; type: functional; details: route subcutaneous
[21] = system: Plasmodium gallinaceum; experiment: Antimalarial activity against trophozoite-induced Plasmodium gallinaceum infected in white leghorn chicken assessed as increase in mean survival days of host at 80 mg/kg, sc administered 72 hrs after infection relative to control; type: functional; details: route subcutaneous
[22] = system: Plasmodium gallinaceum; experiment: Antimalarial activity against trophozoite-induced Plasmodium gallinaceum infected in white leghorn chicken assessed as increase in mean survival days of host at 40 mg/kg, sc administered 72 hrs after infection relative to control; type: functional; details: route subcutaneous
[23] = system: Plasmodium gallinaceum; experiment: Antimalarial activity against trophozoite-induced Plasmodium gallinaceum infected in white leghorn chicken assessed as increase in mean survival days of host at 20 mg/kg, sc administered 72 hrs after infection relative to control; type: functional; details: route subcutaneous
[24] = system: Plasmodium gallinaceum; experiment: Antimalarial activity against trophozoite-induced Plasmodium gallinaceum infected in white leghorn chicken assessed as increase in mean survival days of host at 10 mg/kg, sc administered 72 hrs after infection relative to control; type: functional; details: route subcutaneous
[25] = system: Plasmodium berghei; experiment: Antimalarial activity against trophozoite-induced Plasmodium berghei infected in mouse assessed as daily dose required to suppression of 90% parasite infection administered with diet for 6 days; type: functional
[26] = system: Plasmodium berghei; experiment: Ratio of quinine hydrochloride SD90 to compound SD90 for trophozoite-induced Plasmodium berghei infected in mouse assessed as daily dose required to suppression of 90% parasite infection administered with diet for 6 days; type: functional
[27] = system: Plasmodium gallinaceum; experiment: Antimalarial activity against trophozoite-induced Plasmodium gallinaceum infected in white leghorn chicken assessed as disease cure from parasite infection at 320 mg/kg, sc administered 72 hrs after infection; type: functional, organism-based; parameters: dose 320 mg/kg
[28] = system: Plasmodium gallinaceum; experiment: Antimalarial activity against trophozoite-induced Plasmodium gallinaceum infected in white leghorn chicken assessed as disease cure from parasite infection at 160 mg/kg, sc administered 72 hrs after infection; type: functional, organism-based; parameters: dose 160 mg/kg
[29] = system: Plasmodium berghei; experiment: Antimalarial activity against Plasmodium berghei infected in mouse assessed as disease cure from parasite infection at 40 mg/kg, sc administered 72 hrs after infection; type: functional, organism-based; parameters: dose 40 mg/kg
[30] = system: Plasmodium berghei; experiment: Antimalarial activity against Plasmodium berghei infected in mouse assessed as disease cure from parasite infection at 20 mg/kg, sc administered 72 hrs after infection; type: functional, organism-based; parameters: dose 20 mg/kg
[31] = system: Plasmodium gallinaceum; experiment: Antimalarial activity against sporozoite-induced Plasmodium gallinaceum infected in white leghorn chicken assessed as disease cure from parasite infection at 320 mg/kg, sc administered 72 hrs after infection; type: functional, organism-based; parameters: dose 320 mg/kg
[32] = system: Plasmodium gallinaceum; experiment: Antimalarial activity against sporozoite-induced Plasmodium gallinaceum infected in white leghorn chicken assessed as disease cure from parasite infection at 160 mg/kg, sc administered 72 hrs after infection; type: functional, organism-based; parameters: dose 160 mg/kg
[33] = system: Plasmodium gallinaceum; experiment: Antimalarial activity against sporozoite-induced Plasmodium gallinaceum infected in white leghorn chicken assessed as disease cure from parasite infection at 80 mg/kg, sc administered 72 hrs after infection; type: functional, organism-based; parameters: dose 80 mg/kg

Compound | MIC [1] [µg/mL] | MIC [2] [µg/mL] | MIC [3] [µg/mL] | MIC [4] [µg/mL] | MIC [5] [µg/mL] | MIC [6] [µg/mL] | MIC [7] [µg/mL] | MST [8] [days] | MST [9] [days] | MST [10] [days] | MST [11] [days] | Activity [12] | Activity [13] | Activity [14] | Activity [15] | MST [16] [days] | MST [17] [days] | other results
CC(=O)Nc1ccc(Sc2ccc3nc(N)nc(N)c3c2)cc1 | < 0.25 | < 0.25 | < 0.25 | > 25 | 2.5 (≈ 7.68 µM) | > 25 | > 25 | 24.9 | 12.9 | 6.3 | 3.3 | Active | Active | Active | Active |  |  | 
Nc1nc(N)c2cc(Sc3cc(Cl)cc(Cl)c3)ccc2n1 | < 0.25 | < 0.25 | < 0.25 | > 25 | 2 (≈ 5.93 µM) | 20 (≈ 59.3 µM) | 20 (≈ 59.3 µM) | 12.7 | 6.9 | 4.1 | 1.1 | Active | Active | Active |  | 17.9 |  | 
Nc1nc(N)c2cc(Sc3ccccc3Cl)ccc2n1 | < 0.25 | < 0.25 | < 0.25 | > 25 | < 0.25 | 2 (≈ 6.61 µM) |  | 8.1 | 0.5 | 0.5 | 0.3 |  | Active | Active |  | 10.9 | 18.9 | MST [18]: 0.3 days; MST [19]: 20.8 days; MST [20]: 19.8 days; MST [21]: 10.2 days; MST [22]: 7.6 days; MST [23]: 6 days; MST [24]: 0 days
Nc1nc(N)c2cc(Sc3cc(Cl)ccc3Cl)ccc2n1 | < 0.25 | < 0.25 | < 0.25 | > 25 | 1 (≈ 2.97 µM) | 10 (≈ 29.7 µM) |  | 9.8 | 8.2 | 5.9 | 2.9 | Active | Active | Active |  | 8.8 |  | MST [18]: 2.3 days; SD90 [25]: 4.5 mg/kg/day; Ratio [26]: 17
CN(Cc1ccc(Cl)c(Cl)c1)c1ccc2nc(N)nc(N)c2c1 |  |  |  |  |  |  |  |  |  |  |  | Active | Active | Active | Active |  |  | Activity [27]: Active; Activity [28]: Active; Activity [29]: Active; Activity [30]: Active
CC(C)(C)c1ccc(Sc2ccc3nc(N)nc(N)c3c2)cc1 | < 0.25 | < 0.25 | < 0.25 | > 25 | 10 (≈ 30.8 µM) | 15 (≈ 46.2 µM) |  | 6 | 2.6 | 1 | 1.1 | Active | Active |  |  | 7.8 | 17.9 | SD90 [25]: 18 mg/kg/day; Ratio [26]: 4.1
Nc1nc(N)c2cc(Sc3cccc(Cl)c3)ccc2n1 | 10 (≈ 33 µM) | 2.5 (≈ 8.26 µM) | 5 (≈ 16.5 µM) | > 25 | 10 (≈ 33 µM) | 20 (≈ 66.1 µM) | > 25 | 4.3 | 3.5 | 0.5 | 0.5 | Active | Active |  |  | 4.9 | 20.9 | 
Nc1nc(N)c2c(Cl)c(Sc3cccc(C(F)(F)F)c3)ccc2n1 | < 0.25 | < 0.25 | < 0.25 | > 25 | 0.5 (≈ 1.35 µM) | 2 (≈ 5.39 µM) | 10 (≈ 27 µM) | 19.9 | 14.7 | 5.9 |  | Active | Active | Active | Active | 24.9 |  | Activity [31]: Active; Activity [32]: Active; Activity [33]: Active; Activity [29]: Active
